According to ChEMBL document CHEMBL4373717, “Coumarin-containing hybrids and their anticancer activities” (Eur J Med Chem, 2019):
In brackets after ≈: the same amount, converted by molar mass. Blank lines part the entries; values can stand above or below the compound they belong to.

What was measured:
[1] = system: BHK-21; assay: Cytotoxicity against BHK21 cells assessed as reduction in cell viability after 48 hrs by SRB assay; type: cell-based; conditions: Mesocricetus auratus, BHK-21, 48 h
[2] = system: NCI-H157; assay: Cytotoxicity against human NCI-H157 cells assessed as reduction in cell viability after 48 hrs by SRB assay; type: functional, cell-based; conditions: NCI-H157, 48 h
[3] = Cytotoxicity against human MCF7/DX cells assessed as reduction in cell viability by SRB assay; type: functional, cell-based
[4] = system: MCF7; assay: Cytotoxicity against human MCF7 cells assessed as reduction in cell viability by SRB assay; type: functional, cell-based
[5] = system: HeLa; assay: Cytotoxicity against human HeLa cells assessed as reduction in cell viability by SRB assay; type: functional, cell-based
[6] = system: A549; assay: Cytotoxicity against human A549 cells assessed as reduction in cell viability by SRB assay; type: functional, cell-based
[7] = system: HepG2; assay: Cytotoxicity against human HepG2 cells assessed as reduction in cell viability by SRB assay; type: functional, cell-based
[8] = system: DU-145; assay: Cytotoxicity against human DU145 cells assessed as reduction in cell viability by SRB assay; type: functional, cell-based
[9] = system: SK-OV-3; assay: Cytotoxicity against human SKOV3 cells assessed as reduction in cell viability by SRB assay; type: functional, cell-based
[10] = system: DLD-1; assay: Cytotoxicity against human DLD1 cells assessed as reduction in cell viability; type: functional, cell-based
[11] = system: HepG2; assay: Cytotoxicity against human HepG2 cells assessed as reduction in cell viability; type: functional, cell-based
[12] = system: HeLa; assay: Antiproliferative activity against human HeLa cells by MTT assay; type: functional, cell-based
[13] = system: MDA-MB-231; assay: Anticancer activity against human MDA-MB-231 cells by MTT assay; type: functional, cell-based
[14] = system: K562; assay: Anticancer activity against human K562 cells by MTT assay; type: functional, cell-based
[15] = system: HeLa; assay: Anticancer activity against human HeLa cells by MTT assay; type: functional, cell-based
[16] = system: A549; assay: Anticancer activity against human A549 cells by MTT assay; type: functional, cell-based

SMILES: O=c1oc2ccccc2cc1-c1nnc2n1N=C(c1ccc([N+](=O)[O-])cc1)CS2
IC50 [1]: 1.01 to 5.72 µM
IC50 [2]: 1.01 to 5.72 µM

SMILES: O=c1oc2ccccc2cc1-c1nnc2n1N=C(c1ccc(F)cc1)CS2
IC50 [1]: 1.01 to 5.72 µM
IC50 [2]: 1.01 to 5.72 µM

SMILES: O=c1oc2ccccc2cc1-c1nnc2n1N=C(c1ccc(Cl)cc1)CS2
IC50 [1]: 1.01 to 5.72 µM
IC50 [2]: 1.01 to 5.72 µM

SMILES: Cc1cc(=O)oc2cc(OCCOCCN3C(=O)C(=O)c4ccccc43)ccc12
IC50 [3]: 10.3 to 50 µM
IC50 [4]: 10.3 to 50 µM
IC50 [5]: 10.3 to 50 µM
IC50 [6]: 10.3 to 50 µM
IC50 [7]: 10.3 to 50 µM
IC50 [8]: 10.3 to 50 µM
IC50 [9]: 10.3 to 50 µM

SMILES: Cc1ccc2c(c1)C(=O)C(=O)N2CCOCCOc1ccc2c(C)cc(=O)oc2c1
IC50 [3]: 10.3 to 50 µM
IC50 [4]: 10.3 to 50 µM
IC50 [5]: 10.3 to 50 µM
IC50 [6]: 10.3 to 50 µM
IC50 [7]: 10.3 to 50 µM
IC50 [8]: 10.3 to 50 µM
IC50 [9]: 10.3 to 50 µM

SMILES: Cc1cc(=O)oc2cc(OCCOCCN3C(=O)/C(=N\O)c4cc(F)ccc43)ccc12
IC50 [3]: 10.3 to 50 µM
IC50 [4]: 10.3 to 50 µM
IC50 [5]: 10.3 to 50 µM
IC50 [6]: 10.3 to 50 µM
IC50 [7]: 10.3 to 50 µM
IC50 [8]: 10.3 to 50 µM
IC50 [9]: 10.3 to 50 µM

SMILES: O=C(c1cnc(Nc2ccc(F)cc2)s1)c1cc2ccccc2oc1=O
IC50 [10]: 5.66 to 100 µg/mL (≈ 15.4 to 273 µM)
IC50 [11]: 5.66 to 100 µg/mL (≈ 15.4 to 273 µM)

SMILES: O=C(c1cnc(Nc2ccc(Br)cc2)s1)c1cc2ccccc2oc1=O
IC50 [10]: 5.66 to 100 µg/mL (≈ 13.2 to 234 µM)
IC50 [11]: 5.66 to 100 µg/mL (≈ 13.2 to 234 µM)

SMILES: O=c1oc2ccccc2cc1C1=Nn2c(nnc2-c2cc3ccccc3oc2=O)SC1
IC50 [1]: 1.01 to 5.72 µM
IC50 [2]: 1.01 to 5.72 µM

SMILES: CCNc1ncc(C(=O)c2cc3ccccc3oc2=O)s1
IC50 [10]: 5.66 to 100 µg/mL (≈ 18.8 to 333 µM)
IC50 [11]: 5.66 to 100 µg/mL (≈ 18.8 to 333 µM)

SMILES: Cc1ccc(C2=Nn3c(nnc3-c3cc4ccccc4oc3=O)SC2)cc1
IC50 [1]: 1.01 to 5.72 µM
IC50 [2]: 1.01 to 5.72 µM

IC50 [12]: 0.0091 to 0.569 µM
SMILES: CCOC(=O)c1sc(N/N=C(\C)c2cc3cc(Cl)ccc3oc2=O)nc1C

IC50 [12]: 0.0091 to 0.569 µM
SMILES: COC(=O)c1sc(N/N=C(\C)c2cc3cc(Cl)ccc3oc2=O)nc1C

SMILES: O=c1oc2ccccc2cc1-c1nnc2n1N=C(c1ccc(Cl)c(Cl)c1)CS2
IC50 [1]: 1.39 µM
IC50 [2]: 1.73 µM

SMILES: Cc1cc(=O)oc2cc(OCCOCCN3C(=O)/C(=N\O)c4cc(Cl)ccc43)ccc12
IC50 [3]: 10.3 to 50 µM
IC50 [4]: 10.3 to 50 µM
IC50 [5]: 10.3 to 50 µM
IC50 [6]: 10.3 to 50 µM
IC50 [7]: 10.3 to 50 µM
IC50 [8]: 10.3 to 50 µM
IC50 [9]: 10.3 to 50 µM

SMILES: COc1ccc(/C(C)=N/Nc2ncc(C(=O)c3cc4ccccc4oc3=O)s2)cc1
EC50 [10]: 3.7 to 9.54 µg/mL (≈ 8.82 to 22.7 µM)
EC50 [11]: 3.7 to 9.54 µg/mL (≈ 8.82 to 22.7 µM)

SMILES: O=c1oc2ccccc2cc1-c1nnc2n1N=C(c1ccc(-c3ccccc3)cc1)CS2
IC50 [1]: 1.01 to 5.72 µM
IC50 [2]: 1.01 to 5.72 µM

IC50 [13]: 0.16 to 1.12 µg/mL (≈ 0.298 to 2.08 µM)
IC50 [14]: 0.16 to 1.12 µg/mL (≈ 0.298 to 2.08 µM)
IC50 [15]: 0.16 to 1.12 µg/mL (≈ 0.298 to 2.08 µM)
IC50 [16]: 0.16 to 1.12 µg/mL (≈ 0.298 to 2.08 µM)
SMILES: COc1ccc(/N=c2\scc(-c3cc4ccccc4oc3=O)n2-n2c(C)nn(-c3ccc(C)cc3)c2=O)cc1

IC50 [12]: 0.0091 to 0.569 µM
SMILES: CCOC(=O)c1sc(N/N=C(\C)c2cc3ccccc3oc2=O)nc1C

IC50 [13]: 0.16 to 1.12 µg/mL (≈ 0.266 to 1.86 µM)
IC50 [14]: 0.16 to 1.12 µg/mL (≈ 0.266 to 1.86 µM)
IC50 [15]: 0.16 to 1.12 µg/mL (≈ 0.266 to 1.86 µM)
IC50 [16]: 0.16 to 1.12 µg/mL (≈ 0.266 to 1.86 µM)
SMILES: COc1ccc(/N=c2\scc(-c3cc4ccccc4oc3=O)n2-n2c(C)nn(-c3ccc(Br)cc3)c2=O)cc1

SMILES: COc1ccc(C2=Nn3c(nnc3-c3cc4ccccc4oc3=O)SC2)cc1
IC50 [1]: 1.01 to 5.72 µM
IC50 [2]: 1.01 to 5.72 µM

SMILES: CNc1ncc(C(=O)c2cc3ccccc3oc2=O)s1
IC50 [10]: 5.66 to 100 µg/mL (≈ 19.8 to 349 µM)
IC50 [11]: 5.66 to 100 µg/mL (≈ 19.8 to 349 µM)
